Molecules are shown by their SMILES.

The first assay deals with T1, recombinant His-tag Y220C p53 DBD protein (Homo sapiens, UniProt P04637, Y220C).
T1 construct: recombinant His-tag Y220C p53 DBD protein (amino acids #˜94-312)
Put plainly: In vitro DNA binding activity assay (TR-FRET): binding of His-tag Y220C p53 DBD to biotin-labeled consensus DNA. The following applies: SC150 = concentration to increase DNA binding by […], His-tag Y220C p53 DBD, biotin-labeled consensus DNA. It is filed as biochemical.
For `COCC1(n2ccc(C(=O)NCc3nc(-c4cc5c(N[C@H]6CCNC[C@H]6F)cccc5n4CC(F)(F)F)no3)c2)CC1` [Compound 476B, N-{[3-(4-{[(3R,4S)-3-fluoropiperidin-4-yl]amino}-1-(2,2,2-trifluoroethyl)-1H-indol-2-yl)-1,2,4-oxadiazol-5-yl]methyl}-1-[1-(methoxymethyl)cyclopropyl]-1H-pyrrole-3-carboxamide], the “Y220C SC150 (μM)” value is given as “* (* = 0 μM ≤ SC150 < 0.1 μM)”.
As to `CN1CC[C@@H](Nc2cccc3c2cc(-c2noc(CNC(=O)c4ccc(C(C)(C)C)[nH]4)n2)n3CC(F)(F)F)[C@@H](F)C1` [Compound 524B, 5-tert-butyl-N-{[3-(4-{[(3S,4R)-3-fluoro-1-methylpiperidin-4-yl]amino}-1-(2,2,2-trifluoroethyl)-1H-indol-2-yl)-1,2,4-oxadiazol-5-yl]methyl}-1H-pyrrole-2-carboxamide], the “Y220C SC150 (μM)” value was “* (* = 0 μM ≤ SC150 < 0.1 μM)”.
For `CN1CC[C@@H](Nc2cccc3c2cc(-c2noc(CNC(=O)c4csc(N(C)C)n4)n2)n3CC(F)(F)F)[C@@H](F)C1` [Compound 435B, 2-(dimethylamino)-N-{[3-(4-{[(3S,4R)-3-fluoro-1-methylpiperidin-4-yl]amino}-1-(2,2,2-trifluoroethyl)-1H-indol-2-yl)-1,2,4-oxadiazol-5-yl]methyl}-1,3-thiazole-4-carboxamide], the “Y220C SC150 (μM)” value is given as “* (* = 0 μM ≤ SC150 < 0.1 μM)”.
As to `CN1CC[C@@H](Nc2cccc3c2cc(-c2noc(CNC(=O)[C@@H]4C[C@H]4c4cccc(F)c4)n2)n3CC(F)(F)F)[C@@H](F)C1` [Compound 235B, (1R,2R)-N-{[3-(4-{[(3S,4R)-3-fluoro-1-methylpiperidin-4-yl]amino}-1-(2,2,2-trifluoroethyl)-1H-indol-2-yl)-1,2,4-oxadiazol-5-yl]methyl}-2-(3-fluorophenyl)cyclopropane-1-carboxamide], the “Y220C SC150 (μM)” value is recorded as “* (* = 0 μM ≤ SC150 < 0.1 μM)”.
As to `CN1CC[C@@H](Nc2cccc3c2cc(-c2nnc(CNC(=O)c4ccn(C(C)(C)C)c4)s2)n3CC(F)(F)F)[C@@H](F)C1` [Compound 286B, 1-tert-butyl-N-{[5-(4-{[(3S,4R)-3-fluoro-1-methylpiperidin-4-yl]amino}-1-(2,2,2-trifluoroethyl)-1H-indol-2-yl)-1,3,4-thiadiazol-2-yl]methyl}-1H-pyrrole-3-carboxamide], the “Y220C SC150 (μM)” value is on record as “* (* = 0 μM ≤ SC150 < 0.1 μM)”.
Consider `CN1CC[C@@H](Nc2cccc3c2cc(-c2noc(CNC(=O)c4csc(N5CCOCC5)c4)n2)n3CC(F)(F)F)[C@@H](F)C1` [Compound 436B, N-{[3-(4-{[(3S,4R)-3-fluoro-1-methylpiperidin-4-yl]amino}-1-(2,2,2-trifluoroethyl)-1H-indol-2-yl)-1,2,4-oxadiazol-5-yl]methyl}-5-(morpholin-4-yl)thiophene-3-carboxamide], for which the “Y220C SC150 (μM)” value was “* (* = 0 μM ≤ SC150 < 0.1 μM)”.
The same measure, in the same setting: as for `CN1CCC(Nc2cccc3c2cc(-c2nc(CNC(=O)C4CC4)no2)n3CC(F)(F)F)CC1` [Compound 137B, N-[(5-{4-[(1-methylpiperidin-4-yl)amino]-1-(2,2,2-trifluoroethyl)-1H-indol-2-yl}-1,2,4-oxadiazol-3-yl)methyl]cyclopropanecarboxamide], the entry is “** (** = 0.1 μM ≤ SC150 < 0.5 μM)”.
The same measure, in the same setting: as for `CN1CC[C@@H](Nc2cccc3c2cc(-c2noc(CNC(=O)c4cncn4CCF)n2)n3CC(F)(F)F)[C@@H](F)C1` [Compound 556B, N-{[3-(4-{[(3S,4R)-3-fluoro-1-methylpiperidin-4-yl]amino}-1-(2,2,2-trifluoroethyl)-1H-indol-2-yl)-1,2,4-oxadiazol-5-yl]methyl}-1-(2-fluoroethyl)-1H-imidazole-5-carboxamide], the entry is “* (* = 0 μM ≤ SC150 < 0.1 μM)”; as for `CN1CCC(Nc2cccc3c2cc(-c2nnc(CNC(=O)C4CC4)s2)n3CC(F)(F)F)CC1` [Compound 35B, N-[(5-{4-[(1-methylpiperidin-4-yl)amino]-1-(2,2,2-trifluoroethyl)-1H-indol-2-yl}-1,3,4-thiadiazol-2-yl)methyl]cyclopropanecarboxamide], “* (* = 0 μM ≤ SC150 < 0.1 μM)”.
Regarding `CN1CC[C@@H](Nc2cccc3c2cc(-c2noc(CNC(=O)c4ccsc4)n2)n3CC(F)(F)F)[C@@H](F)C1` [Compound 189B, N-{[3-(4-{[(3S,4R)-3-fluoro-1-methylpiperidin-4-yl]amino}-1-(2,2,2-trifluoroethyl)-1H-indol-2-yl)-1,2,4-oxadiazol-5-yl]methyl}thiophene-3-carboxamide], the “Y220C SC150 (μM)” value was “* (* = 0 μM ≤ SC150 < 0.1 μM)”.
For `COC1CCC(n2ccc(C(=O)NCc3nc(-c4cc5c(N[C@@H]6CCN(C)C[C@@H]6F)cccc5n4CC(F)(F)F)no3)c2)C1` (stereo in doubt) [Compound 360B, N-{[3-(4-{[(3S,4R)-3-fluoro-1-methylpiperidin-4-yl]amino}-1-(2,2,2-trifluoroethyl)-1H-indol-2-yl)-1,2,4-oxadiazol-5-yl]methyl}-1-[(1R,3R)-3-methoxycyclopentyl]-1H-pyrrole-3-carboxamide], the “Y220C SC150 (μM)” value was “* (* = 0 μM ≤ SC150 < 0.1 μM)”.
Still for that read-out and setting: as for `COc1ccc(C(=O)NCc2nc(-c3cc4c(N[C@@H]5CCN(C)C[C@@H]5F)cccc4n3CC(F)(F)F)no2)cc1` [Compound 295B, N-{[3-(4-{[(3S,4R)-3-fluoro-1-methylpiperidin-4-yl]amino}-1-(2,2,2-trifluoroethyl)-1H-indol-2-yl)-1,2,4-oxadiazol-5-yl]methyl}-4-methoxybenzamide], the entry is “* (* = 0 μM ≤ SC150 < 0.1 μM)”; as for `CCN1CC[C@@H](Nc2cccc3c2cc(-c2noc(CNC(=O)c4ccn(C(C)(C)C)c4)n2)n3CC(F)(F)F)[C@@H](F)C1` [Compound 298B, 1-tert-butyl-N-{[3-(4-{[(3S,4R)-1-ethyl-3-fluoropiperidin-4-yl]amino}-1-(2,2,2-trifluoroethyl)-1H-indol-2-yl)-1,2,4-oxadiazol-5-yl]methyl}-1H-pyrrole-3-carboxamide], “* (* = 0 μM ≤ SC150 < 0.1 μM)”; as for `CN1CC[C@@H](Nc2cccc3c2cc(-c2nnc(CNC(=O)C4COC4)s2)n3CC(F)(F)F)[C@@H](F)C1` (racemic) [Compound 36B, (+/−)-N-{[5-(4-{[(3R,4S)-3-fluoro-1-methylpiperidin-4-yl]amino}-1-(2,2,2-trifluoroethyl)-1H-indol-2-yl)-1,3,4-thiadiazol-2-yl]methyl}oxetane-3-carboxamide], “** (** = 0.1 μM ≤ SC150 < 0.5 μM)”.
On the same count and under the same terms, in the case of `Cc1cc(C(=O)NCc2nc(-c3cc4c(N[C@@H]5CCN(C)C[C@@H]5F)cccc4n3CC(F)(F)F)no2)cs1` [Compound 208B, N-{[3-(4-{[(3S,4R)-3-fluoro-1-methylpiperidin-4-yl]amino}-1-(2,2,2-trifluoroethyl)-1H-indol-2-yl)-1,2,4-oxadiazol-5-yl]methyl}-5-methylthiophene-3-carboxamide] it was “* (* = 0 μM ≤ SC150 < 0.1 μM)”; in that of `CN1CC[C@@H](Nc2cccc3c2cc(-c2noc(CNC(=O)c4ccn(C5(CO)CC5)c4)n2)n3CC(F)(F)F)[C@@H](F)C1` [Compound 472B, N-{[3-(4-{[(3S,4R)-3-fluoro-1-methylpiperidin-4-yl]amino}-1-(2,2,2-trifluoroethyl)-1H-indol-2-yl)-1,2,4-oxadiazol-5-yl]methyl}-1-[1-(hydroxymethyl)cyclopropyl]-1H-pyrrole-3-carboxamide], “* (* = 0 μM ≤ SC150 < 0.1 μM)”; in that of `CC1(n2ccc(C(=O)NCc3nc(-c4cc5c(N[C@H]6CNCC[C@H]6F)cccc5n4CC(F)(F)F)no3)c2)CCOCC1` [Compound 421B, N-{[3-(4-{[(3S,4R)-4-fluoropiperidin-3-yl]amino}-1-(2,2,2-trifluoroethyl)-1H-indol-2-yl)-1,2,4-oxadiazol-5-yl]methyl}-1-(4-methyloxan-4-yl)-1H-pyrrole-3-carboxamide], “* (* = 0 μM ≤ SC150 < 0.1 μM)”.
In the case of `CN1CCC(n2ccc(C(=O)NCc3nc(-c4cc5c(N[C@@H]6CCN(C)C[C@@H]6F)cccc5n4CC(F)(F)F)no3)c2)CC1` [Compound 363B, N-{[3-(4-{[(3S,4R)-3-fluoro-1-methylpiperidin-4-yl]amino)-1-(2,2,2-trifluoroethyl)-1H-indol-2-yl)-1,2,4-oxadiazol-5-yl]methyl)-1-(1-methylpiperidin-4-yl)-1H-pyrrole-3-carboxamide], the “Y220C SC150 (μM)” value was “* (* = 0 μM ≤ SC150 < 0.1 μM)”.
`Cc1c[nH]c2ccc(C(=O)NCc3nc(-c4cc5c(N[C@@H]6CCN(C)C[C@@H]6F)cccc5n4CC(F)(F)F)no3)cc12` [Compound 266B, N-{[3-(4-{[(3S,4R)-3-fluoro-1-methylpiperidin-4-yl]amino}-1-(2,2,2-trifluoroethyl)-1H-indol-2-yl)-1,2,4-oxadiazol-5-yl]methyl}-3-methyl-1H-indole-5-carboxamide]: the “Y220C SC150 (μM)” value is “* (* = 0 μM ≤ SC150 < 0.1 μM)”.

Still in this assay, the particulars now being: concentration to increase DNA binding by […], incubated at either 27° C. or 29° C. for 60 min.
Regarding `FC(F)(F)Cn1c(-c2ccc(CNc3ccc(Cl)cc3)cc2)cc2c(NC3CCN(C4CCOCC4)CC3)cccc21` [Compound 32A, 2-(4-{[(4-chlorophenyl)amino]methyl}phenyl)-N-[1-(oxan-4-yl)piperidin-4-yl]-1-(2,2,2-trifluoroethyl)-1H-indol-4-amine], the “SC150 (μM)” value is given as “++ (++ = 2 μM ≤ SC150 < 5 μM)”.
As to `CS(=O)(=O)c1ccc(NCc2ccc(-c3cc4c(NC5CCS(=O)(=O)CC5)cccc4n3CC(F)(F)F)cc2)cn1` [Compound 29A, 4-{[2-(4-{[(6-methanesulfonylpyridin-3-yl)amino]methyl}phenyl)-1-(2,2,2-trifluoroethyl)-1H-indol-4-yl]amino}-1λ^6-thiane-1,1-dione], the “SC150 (μM)” value was “+ (+ = 0 μM ≤ SC150 < 2 μM)”.
As to `CN1CCC(Nc2cccc3c2cc(-c2ccc(C(N)c4ccccc4)cc2)n3CC(F)(F)F)CC1` (stereo not shown) [Compound 38A, 2-{4-[amino(phenyl)methyl]phenyl}-N-(1-methylpiperidin-4-yl)-1-(2,2,2-trifluoroethyl)-1H-indol-4-amine], the “SC150 (μM)” value was “+++ (+++ = 5 μM ≤ SC150 < 10 μM)”.
